Data on 23 compounds can be found in PMC5876303, “Discovery of C-3 Tethered 2-oxo-benzo[1,4]oxazines as Potent Antioxidants: Bio-Inspired Based Design, Synthesis, Biological Evaluation, Cytotoxic, and in Silico Molecular Docking Studies” (Frontiers in Chemistry, 2018).

Each structure is given as a SMILES string. Entries after “also recorded” stand apart in the source; their conditions may differ. Bounds are passed on as bounds.

Series [1] in a line: DPPH radical scavenging antioxidant assay. Format: biochemical. The note with it: Table 1; mean ± SD, n = 3; 517 nm after 20 min. As for the experimental part: In DPPH radical scavenging method the plant extract (0.75 mL) at different concentrations ranging from 10 to 100 μg mL^−1 was mixed with 1.5 mL of a DPPH methanolic solution (20 mg L^−1). Pure methanol was taken as control and ascorbic acid (vitamin C), vitamins A and E were used as a reference compounds. The absorbance was measured at 517 nm after 20 min of reaction. The % of DPPH decolouration of the sample was calculated according to the formula (Sharma and Bhat, [2009]).
Decolouration % = [1−(Abs SAMPLE/Abs CONTROL)]×100
The decolouration was plotted against the sample extract concentration and a logarithmic regression curve was established in order to calculate the IC50. The results are expressed as antiradical efficiency (AE), which is 1000-fold inverse of the IC50 value AE=1000/ IC50.

Series [2] is described as follows: Ferric reducing antioxidant power (FRAP) assay. In kind it is biochemical. To be noted: for FRAP assay (C0.5FRAP): mean ± SD, n = 3, concentration equivalent to FeSO4 at 0.5 mmol/L, 37°C, 30 min, 593 nm; for FRAP potency compared with standard reference BHT: in words, BHT C0.5FRAP = 546.0 ± 13.6 μM. As for the experimental part:
The FRAP reagent was prepared by the addition of freshly prepared 20.0 mM FeCl3.6H2O solution, 10.0 mM of […] (TPTZ) solution and 300 mM sodium acetate buffer (pH 3.6) in a ratio of 1:1:10 (v/v/v). After that, Sample (our synthesized 2-oxo-2-phenylethylidenes-linked 2-oxo-benzo[1,4]oxazines 20a-ab) was added to 3 ml of freshly prepared FRAP reagent and this reaction mixture was incubated at 37°C temperature for 30 min. and the absorbance was measured at 593 nm. It is also noted that, a freshly prepared solution of FeSO4 was used for calibration of standard curve. The FRAP antioxidant capability were evaluated in terms of C0.5FRAP (the antioxidant capability of samples related to their concentration, which is equivalent to that of FeSO4 at 0.5 mmol/L) (Benzie and Strain, [1996]).
The FRAP assay was deliberated using the method as illustrated by Benzie and Strain (Benzie and Strain, [1996]). […] The reducing nature of an antioxidant depends on their property to donate a hydrogen atom for the breaking of the free radical chain, which is responsible for oxidative stress etc.

Take `Cc1cc(Br)c2c(c1)N/C(=C\C(=O)c1ccc(Br)cc1)C(=O)O2` [Compound 20p, (Z)-8-bromo-3-(2-(4-bromophenyl)-2-oxoethylidene)-6-methyl-3,4-dihydro-2H-benzo[b] [1,4]oxazin-2-one]: the melting point – broadly, the temperature, or range, at which the solid turns liquid – was 259 to 260 °C. Besides, the DPPH assay IC50 in series [1] came to 44.3 ± 0.45 µg/mL. Besides, the “FRAP assay (C0.5FRAP)” value in series [2] was greater than 1000 µM.

In turn, `O=C1Oc2cc([N+](=O)[O-])ccc2N/C1=C\C(=O)c1ccc(Cl)cc1` [Compound 20y, (Z)-3-(2-(4-chlorophenyl)-2-oxoethylidene)-7-nitro-3,4-dihydro-2H-benzo[b][1,4]oxazin-2-one] had a melting point of 205 to 207 °C. In series [1], this compound displayed a DPPH assay IC50 of 19.8 ± 0.35 µg/mL. Besides, in series [2], the “FRAP assay (C0.5FRAP)” value is 708.2 ± 27.1 µM.

Take `O=C1Oc2cc([N+](=O)[O-])ccc2N/C1=C\C(=O)c1ccccc1` [Compound 20w, (Z)-7-nitro-3-(2-oxo-2-phenylethylidene)-3,4-dihydro-2H-benzo[b][1,4]oxazin-2-one]: the melting point is 240 to 242 °C. In series [1], this compound had a DPPH assay IC50 of 12.53 ± 0.09 µg/mL. In addition, in series [2], the “FRAP potency compared with standard reference BHT” value is given as “less active than BHT” and the “FRAP assay (C0.5FRAP)” value worked out at 597.4 ± 26.4 µM.

`Cc1cc(C(C)(C)C)c(O)c(C(C)(C)C)c1` [BHT, reference compound]: in series [2], the “FRAP assay (C0.5FRAP)” value was found to be 546.0 ± 13.6 µM.

`Cc1ccc2c(c1)N/C(=C\C(=O)c1ccc(Cl)cc1Cl)C(=O)O2` [Compound 20k, (Z)-3-[2-(2,4-dichloro-phenyl)-2-oxo-ethylidene]-6-methyl-3,4-dihydro-benzo[1,4]oxazin-2-one] had a melting point of 142 to 145 °C. The same compound returned a DPPH assay IC50 in series [1] of 43.6 ± 0.92 µg/mL. Moreover, the “FRAP assay (C0.5FRAP)” value in series [2] came to 652.5 ± 30.6 µM.

`COc1ccc(C(=O)/C=C2\Nc3cc([N+](=O)[O-])ccc3OC2=O)cc1` [Compound 20v, (Z)-3-(2-(4-methoxyphenyl)-2-oxoethylidene)-6-nitro-3,4-dihydro-2H-benzo[b][1,4]oxazin-2-one]: the melting point was 195 to 197 °C. For the same compound, in series [1], the DPPH assay IC50 is 43.6 ± 0.92 µg/mL.

In series [1], `O=C1Oc2ccccc2N/C1=C\C(=O)c1ccccc1` [Compound 20a, (Z)-3-(2-oxo-2-phenylethylidene)-3,4-dihydro-2H-benzo[b][1,4]oxazin-2-one] came in with a DPPH assay IC50 of 10.2 ± 0.08 µg/mL. In series [2], the “FRAP potency compared with standard reference BHT” value is recorded as “less active than BHT” and the “FRAP assay (C0.5FRAP)” value is 611.5 ± 23.2 µM.

Turning to `Cc1ccc2c(c1)N/C(=C\C(=O)c1ccc([N+](=O)[O-])cc1)C(=O)O2` [Compound 20r, (Z)-6-methyl-3-(2-(4-nitrophenyl)-2-oxoethylidene)-3,4-dihydro-2H-benzo[1,4]oxazin-2-one], the DPPH assay IC50 in series [1] is 12.23 ± 0.05 µg/mL. In series [2], the “FRAP potency compared with standard reference BHT” value was “potent activity than BHT; also recorded: more potent than standard reference BHT” and the “FRAP assay (C0.5FRAP)” value was 328.6 ± 25.8 µM.

In series [1], `COc1ccc(C(=O)/C=C2\Nc3ccc([N+](=O)[O-])cc3OC2=O)cc1` [Compound 20ab, (Z)-3-(2-(4-methoxyphenyl)-2-oxoethylidene)-7-nitro-3,4-dihydro-2H-benzo[b][1,4]oxazin-2-one] had a DPPH assay IC50 of 43.6 ± 0.74 µg/mL.

For the compound `Cc1ccc(C(=O)/C=C2\Nc3cc(Cl)ccc3OC2=O)cc1` [Compound 20h, (Z)-6-chloro-3-(2-oxo-2-(p-tolyl)ethylidene)-3,4-dihydro-2H-benzo[b][1,4]oxazin-2-one], the melting point is 160 to 162 °C. This compound gave a DPPH assay IC50 in series [1] of 44.8 ± 0.81 µg/mL. Moreover, the “FRAP assay (C0.5FRAP)” value in series [2] worked out at 821.9 ± 38.7 µM.

As for `O=C1Oc2cc([N+](=O)[O-])ccc2N/C1=C\C(=O)c1ccc(Br)cc1` [Compound 20aa, (Z)-3-(2-(4-bromophenyl)-2-oxoethylidene)-7-nitro-3,4-dihydro-2H-benzo[b][1,4]oxazin-2-one], the melting point lay within 230 to 232 °C. In series [1], the DPPH assay IC50 turned out to be 28.37 ± 0.16 µg/mL. In series [2], the “FRAP potency compared with standard reference BHT” value is on record as “more potent than standard reference BHT” and the “FRAP assay (C0.5FRAP)” value came to 518.6 ± 17.6 µM.

Compound `O=C1Oc2ccc(Cl)cc2N/C1=C\C(=O)c1ccc(Cl)cc1` [Compound 20e, (Z)-6-chloro-3-(2-(4-chlorophenyl)-2-oxoethylidene)-3,4-dihydro-2H-benzo[b][1,4]oxazin-2-one] returned a melting point of 182 to 185 °C. In series [1], this compound displayed a DPPH assay IC50 of 92.2 ± 1.54 µg/mL.

On to `Cc1cc(Br)c2c(c1)N/C(=C\C(=O)c1ccccc1)C(=O)O2` [Compound 20m, (Z)-8-bromo-6-methyl-3-(2-oxo-2-phenylethylidene)-3,4-dihydro-2H-benzo[b][1,4]oxazin-2-one], for which the DPPH assay IC50 in series [1] is 24.4 ± 0.46 µg/mL. In addition, in series [2], the “FRAP potency compared with standard reference BHT” value was “greater potency; also recorded: more potent than standard reference BHT” and the “FRAP assay (C0.5FRAP)” value came out at 536.7 ± 21.4 µM.

In the case of `Cc1ccc2c(c1)N/C(=C\C(=O)c1ccc(F)cc1)C(=O)O2` [Compound 20j, (Z)-3-(2-(4-fluorophenyl)-2-oxoethylidene)-6-methyl-3,4-dihydro-2H-benzo[1,4]oxazin-2-one], the DPPH assay IC50 in series [1] was determined as 34.4 ± 0.7 µg/mL. In series [2], the “FRAP potency compared with standard reference BHT” value is given as “more potent than standard reference BHT” and the “FRAP assay (C0.5FRAP)” value turned out to be 502.6 ± 18.2 µM.

Regarding `Cc1cc(Br)c2c(c1)N/C(=C\C(=O)c1ccc(F)cc1)C(=O)O2` [Compound 20n, (Z)-8-bromo-3-(2-(4-fluorophenyl)-2-oxoethylidene)-6-methyl-3,4-dihydro-2H-benzo[b][1,4] oxazin-2-one], in series [1], the DPPH assay IC50 amounted to 16.9 ± 0.72 µg/mL. In series [2], the “FRAP potency compared with standard reference BHT” value is on record as “more potent than standard reference BHT” and the “FRAP assay (C0.5FRAP)” value amounted to 482.5 ± 35.5 µM.

Consider `O=C1Oc2ccc(Cl)cc2N/C1=C\C(=O)c1ccc(Cl)cc1Cl` [Compound 20f, (Z)-6-chloro-3-(2-(2,4-dichlorophenyl)-2-oxoethylidene)-3,4-dihydro-2H-benzo[b][1,4]oxazine-2-One], for which the melting point was 135 to 137 °C. The DPPH assay IC50 in series [1] turned out to be 56.6 ± 1.12 µg/mL.

As for `COc1ccc(C(=O)/C=C2\Nc3cc(Cl)ccc3OC2=O)cc1` [Compound 20i, (Z)-6-chloro-3-(2-(4-methoxyphenyl)-2-oxoethylidene)-3,4-dihydro-2H-benzo[b][1,4]oxazin-2-one], the DPPH assay IC50 in series [1] came to 34.9 ± 0.73 µg/mL. Also, in series [2], the “FRAP assay (C0.5FRAP)” value is 648.2 ± 29.5 µM.

In the case of `O=C1O[C@H]([C@@H](O)CO)C(O)=C1O` [Ascorbic acid, reference compound], the DPPH assay IC50 in series [1] is 4.57 µg/mL.

As for `Cc1cc(Br)c2c(c1)N/C(=C\C(=O)c1ccc(Cl)cc1Cl)C(=O)O2` [Compound 20o, (Z)-8-bromo-3-(2-(2,4-dichlorophenyl)-2-oxoethylidene)-6-methyl-3,4-dihydro-2H-benzo [b][1,4]oxazin-2-one], the DPPH assay IC50 in series [1] was 22.5 ± 0.64 µg/mL. Also, in series [2], the “FRAP assay (C0.5FRAP)” value was determined as 641.6 ± 28.7 µM.

`O=C1Oc2ccc([N+](=O)[O-])cc2N/C1=C\C(=O)c1ccc(F)cc1` [Compound 20u, (Z)-3-(2-(4-fluorophenyl)-2-oxoethylidene)-6-nitro-3,4-dihydro-2H-benzo[b][1,4]oxazin-2-one] registered a melting point greater than 250 °C. Moreover, the DPPH assay IC50 in series [1] came to 32.1 ± 0.52 µg/mL. Besides, in series [2], the “FRAP potency compared with standard reference BHT” value is listed as “more potent than standard reference BHT” and the “FRAP assay (C0.5FRAP)” value worked out at 424.5 ± 19.7 µM.

In turn, `O=C1Oc2ccc(Cl)cc2N/C1=C\C(=O)c1ccc(F)cc1` [Compound 20d, (Z)-6-chloro-3-(2-(4-fluorophenyl)-2-oxoethylidene)-3,4-dihydro-2H-benzo[b][1,4]oxazin-2-one] showed a melting point of 155 to 157 °C. The DPPH assay IC50 in series [1] turned out to be 45.2 ± 0.92 µg/mL. The “FRAP assay (C0.5FRAP)” value in series [2] was found to be 732.7 ± 41.6 µM.

Compound `Cc1ccc(C(=O)/C=C2\Nc3cc(C)cc(Br)c3OC2=O)cc1` [Compound 20q, (Z)-8-bromo-6-methyl-3-(2-oxo-2-(p-tolyl)ethylidene)-3,4-dihydro-2H-benzo[b][1,4]oxazin-2-one] yielded a melting point of 219 to 220 °C. This compound also came in with a DPPH assay IC50 in series [1] of 36.24 ± 0.27 µg/mL.

Turning to `COc1ccc(C(=O)/C=C2\Nc3cc(C)ccc3OC2=O)cc1` [Compound 20l, (Z)-3-[2-(4-methoxy-phenyl)-2-oxo-ethylidene]-6-methyl-3,4-dihydro-benzo[1,4]oxazin-2-one], the melting point was in the range of 180 to 182 °C. The DPPH assay IC50 in series [1] was 43.8 ± 0.85 µg/mL.
